For 14 molecules, activation, AC50 and Emax results are on record in US12122778B2, “Activating pyruvate kinase R” (Novo Nordisk Health Care AG, priority 2018, dated 2024).

The target of one test is PKR(R510Q) (Homo sapiens, UniProt P30613, R510Q). Briefly: Luminescence Biochemical Assay (Kinase Glo Plus), PKR R510Q mutant. The settings on record: without FBP; for activation at 1.54 µM: 1.54 μM compound, read-out: AC50 LUM KGP woFBP % Fold@1.54 μM mean; for AC50: read-out: AC50 LUM KGP woFBP AC50 μM gmean; for Emax: read-out: AC50 LUM KGP woFBP MAX % FOLD mean. On the technique in general: Kinase-Glo measures the ATP left after a reaction by luminescence.
PKR(R510Q), sequence (P30613 whole entry R510Q): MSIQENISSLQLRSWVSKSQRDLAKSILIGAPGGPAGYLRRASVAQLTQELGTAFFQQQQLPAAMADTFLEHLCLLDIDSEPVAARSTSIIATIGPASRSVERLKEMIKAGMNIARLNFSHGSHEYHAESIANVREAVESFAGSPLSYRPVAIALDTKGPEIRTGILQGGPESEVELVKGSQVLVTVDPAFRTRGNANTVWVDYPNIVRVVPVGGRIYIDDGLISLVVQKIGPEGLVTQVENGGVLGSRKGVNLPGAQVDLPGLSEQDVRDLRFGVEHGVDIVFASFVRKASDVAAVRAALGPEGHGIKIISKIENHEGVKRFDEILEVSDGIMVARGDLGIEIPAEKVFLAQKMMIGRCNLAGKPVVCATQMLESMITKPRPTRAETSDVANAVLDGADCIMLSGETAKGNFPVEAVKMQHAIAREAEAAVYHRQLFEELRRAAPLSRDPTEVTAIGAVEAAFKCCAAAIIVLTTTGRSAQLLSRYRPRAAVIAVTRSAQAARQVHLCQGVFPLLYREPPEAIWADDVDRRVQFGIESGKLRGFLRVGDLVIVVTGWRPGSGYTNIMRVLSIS

The next test has as its target PKR(G332S) (Homo sapiens, UniProt P30613, G332S). The test is described as follows: Luminescence Biochemical Assay (Kinase Glo Plus), PKR G332S mutant. The note with it: with FBP; for activation at 1.54 µM: 1.54 μM compound, read-out: AC50 LUM KGP FBP % Fold@1.54 μM mean; for AC50: read-out: AC50 LUM KGP FBP AC50 μM gmean (column A); for Emax: read-out: AC50 LUM KGP FBP MAX % FOLD mean.

The next test concerns the target PKR(wt) (Homo sapiens, UniProt P30613). Briefly: Luminescence Biochemical Assay (Kinase Glo Plus), wild type PKR. The settings on record: without FBP; for activation at 1.54 µM: 1.54 μM compound, read-out: AC50 LUM KGP woFBP % Fold@1.54 μM mean; for AC50: read-out: AC50 LUM KGP woFBP AC50 μM gmean; for Emax: read-out: AC50 LUM KGP woFBP MAX % FOLD mean.

PKR(wt), sequence (P30613 whole entry): as the sequence (P30613 whole entry R510Q) above, with Q510R counted along it
PKR(G332S), sequence (P30613 whole entry G332S): as the sequence (P30613 whole entry R510Q) above, with G332S, Q510R counted along it

The term AC50 denotes the midpoint of the concentration-response curve, whichever way the signal moves. In the case of `O=C([C@H](O)c1ccc(F)cc1)N1CC2=C(C1)CN(S(=O)(=O)c1ccc(OC(F)F)cc1)C2` [Example 18-31, (2R)-1-{5-[4-(difluoromethoxy)benzenesulfonyl]-1H,2H,3H,4H,5H,6H-pyrrolo[3,4-c]pyrrol-2-yl}-2-(4-fluorophenyl)-2-hydroxyethan-1-one], the activation at 1.54 µM was 250 to 50000% on PKR(R510Q), 75 to 250% at PKR(G332S) and 250 to 50000% on PKR(wt). Also, the AC50 on PKR(R510Q), at PKR(G332S) and on PKR(wt) was at most 0.1 µM each time. The Emax on PKR(R510Q) was 250 to 500%; at PKR(G332S), 75 to 250%; at PKR(wt), 250 to 500%.

On to `O=C(C(O)c1ccc(C(F)(F)F)cc1)N1CC2=C(C1)CN(S(=O)(=O)c1ccc(OC(F)F)cc1)C2` (stereo not drawn) [Example 18-32, 1-{5-[4-(Difluoromethoxy)benzenesulfonyl]-1H,2H,3H,4H,5H,6H-pyrrolo[3,4-c]pyrrol-2-yl}-2-hydroxy-2-[4-(trifluoromethyl)phenyl]ethan-1-one], for which, at PKR(R510Q), the activation at 1.54 µM was in the range of 75 to 250%, the AC50 was in the range of 0.1 to 1 µM and the Emax fell in the range of 250 to 500%. In addition, at PKR(G332S), the activation at 1.54 µM was in the range of 75 to 250%, the AC50 was 0.1 to 1 µM and the Emax lay within 75 to 250%. Also, on PKR(wt), the activation at 1.54 µM lay within 75 to 250%, the AC50 is 0.1 to 1 µM and the Emax fell in the range of 250 to 500%.

For `Cc1nn(C)c(Cl)c1S(=O)(=O)N1CC2=C(CN(C(=O)[C@H](O)c3ccccc3)C2)C1` [Example 18-43, (2R)-1-{5-[(5-chloro-1,3-dimethyl-1H-pyrazol-4-yl)sulfonyl]-1H,2H,3H,4H,5H,6H-pyrrolo[3,4-c]pyrrol-2-yl}-2-hydroxy-2-phenylethan-1-one], the activation at 1.54 µM on PKR(R510Q), at PKR(G332S) and at PKR(wt) was 75 to 250% throughout. Moreover, the AC50 on PKR(R510Q), on PKR(G332S) and at PKR(wt) was 1 to 40 µM in each case. The Emax at PKR(R510Q), on PKR(G332S) and at PKR(wt) was 75 to 250% each time.

Consider `N#Cc1ccccc1S(=O)(=O)N1CC2=C(CN(C(=O)[C@H](O)c3ccccc3)C2)C1` [Example 18-47, 2-({5-[(2R)-2-hydroxy-2-phenylacetyl]-1H,2H,3H,4H,5H,6H-pyrrolo[3,4-c]pyrrol-2-yl}sulfonyl)benzonitrile], for which the activation at 1.54 µM at PKR(R510Q), on PKR(G332S) and at PKR(wt) was 75 to 250% each time. For the same molecule, the AC50 on PKR(R510Q) is 0.1 to 1 µM; on PKR(G332S) it was 1 to 40 µM; on PKR(wt) it was 0.1 to 1 µM. Also, the Emax at PKR(R510Q), at PKR(G332S) and at PKR(wt) was 75 to 250% throughout.

For `Cc1ccc(S(=O)(=O)N2CC3=C(CN(C(=O)[C@H](O)c4ccccc4)C3)C2)cc1F` [Example 18-51, (2R)-1-[5-(3-fluoro-4-methylbenzenesulfonyl)-1H,2H,3H,4H,5H,6H-pyrrolo[3,4-c]pyrrol-2-yl]-2-hydroxy-2-phenylethan-1-one], at PKR(R510Q), the activation at 1.54 µM was 75 to 250%, the AC50 is 0.1 to 1 µM and the Emax is 250 to 500%. Further, on PKR(G332S), the activation at 1.54 µM lay within 75 to 250%, the AC50 lay in the range of 1 to 40 µM and the Emax is 75 to 250%. Further, on PKR(wt), the activation at 1.54 µM is 75 to 250%, the AC50 lay in the range of 0.1 to 1 µM and the Emax lay within 75 to 250%.

For the molecule `O=C([C@H](O)c1ccccc1)N1CC2=C(C1)CN(S(=O)(=O)c1cc(F)cc(F)c1)C2` [Example 18-52, (2R)-1-[5-(3,5-difluorobenzenesulfonyl)-1H,2H,3H,4H,5H,6H-pyrrolo[3,4-c]pyrrol-2-yl]-2-hydroxy-2-phenylethan-1-one], the activation at 1.54 µM at PKR(R510Q), on PKR(G332S) and on PKR(wt) was 75 to 250% throughout. In addition, the values for the half-maximal activity concentration (AC50) on PKR(R510Q), on PKR(G332S) and on PKR(wt) were 0.1 to 1 µM, 1 to 40 µM and 0.1 to 1 µM, respectively. The Emax at PKR(R510Q), on PKR(G332S) and at PKR(wt) was 75 to 250% throughout.

Consider `O=C([C@H](O)c1ccccc1)N1CC2=C(C1)CN(S(=O)(=O)c1ccc(F)c(F)c1)C2` [Example 18-53, (2R)-1-[5-(3,4-difluorobenzenesulfonyl)-1H,2H,3H,4H,5H,6H-pyrrolo[3,4-c]pyrrol-2-yl]-2-hydroxy-2-phenylethan-1-one], for which the activation at 1.54 µM at PKR(R510Q), at PKR(G332S) and at PKR(wt) was 75 to 250% each time. The AC50 at PKR(R510Q) was 0.1 to 1 µM; on PKR(G332S), 1 to 40 µM; on PKR(wt), 0.1 to 1 µM. For the same molecule, the Emax at PKR(R510Q), on PKR(G332S) and at PKR(wt) was 75 to 250% each time.

Regarding `Cc1cccc(Cl)c1S(=O)(=O)N1CC2=C(CN(C(=O)[C@@H](O)c3ccccc3)C2)C1` [Example 18-54, (2S)-1-[5-(2-chloro-6-methylbenzenesulfonyl)-1H,2H,3H,4H,5H,6H-pyrrolo[3,4-c]pyrrol-2-yl]-2-hydroxy-2-phenylethan-1-one], on PKR(R510Q), the activation at 1.54 µM was 75 to 250%, the AC50 is 1 to 40 µM and the Emax fell in the range of 75 to 250%. At PKR(G332S), the activation at 1.54 µM lay in the range of 75 to 250%, the AC50 was 1 to 40 µM and the Emax was 75 to 250%. For the same molecule, at PKR(wt), the activation at 1.54 µM is 75 to 250%, the AC50 fell in the range of 1 to 40 µM and the Emax lay in the range of 75 to 250%.

Turning to `CC(=O)Nc1ccc(S(=O)(=O)N2CC3=C(CN(C(=O)[C@H](O)c4ccccc4)C3)C2)cc1` [Example 18-56, N-[4-({5-[(2R)-2-hydroxy-2-phenylacetyl]-1H,2H,3H,4H,5H,6H-pyrrolo[3,4-c]pyrrol-2-yl}sulfonyl)phenyl]acetamide], on PKR(R510Q), the activation at 1.54 µM is 75 to 250%, the AC50 lay within 1 to 40 µM and the Emax was 250 to 500%. Further, at PKR(G332S), the activation at 1.54 µM lay within 75 to 250%, the AC50 lay in the range of 1 to 40 µM and the Emax lay within 75 to 250%. Also, at PKR(wt), the activation at 1.54 µM lay within 75 to 250%, the AC50 lay in the range of 1 to 40 µM and the Emax was 75 to 250%.

For the molecule `COc1cc(Cl)ccc1S(=O)(=O)N1CC2=C(CN(C(=O)[C@H](O)c3ccccc3)C2)C1` [Example 18-58, (2R)-1-[5-(4-chloro-2-methoxybenzenesulfonyl)-1H,2H,3H,4H,5H,6H-pyrrolo[3,4-c]pyrrol-2-yl]-2-hydroxy-2-phenylethan-1-one], the activation at 1.54 µM at PKR(R510Q), on PKR(G332S) and at PKR(wt) was 75 to 250% in each case. Besides, the AC50 at PKR(R510Q), on PKR(G332S) and at PKR(wt) was 1 to 40 µM throughout. Also, the Emax at PKR(R510Q), on PKR(G332S) and on PKR(wt) was 75 to 250% each time.

In the case of `O=C([C@H]1CCCO1)N1CC2=C(C1)CN(S(=O)(=O)c1cccnc1)C2` [Example 18-59, 3-({5-[(2R)-oxolane-2-carbonyl]-1H,2H,3H,4H,5H,6H-pyrrolo[3,4-c]pyrrol-2-yl}sulfonyl)pyridine], the activation at 1.54 µM on PKR(R510Q), at PKR(G332S) and on PKR(wt) was 75 to 250% each time. In addition, the AC50 on PKR(R510Q), at PKR(G332S) and at PKR(wt) was 1 to 40 µM throughout. The Emax at PKR(R510Q), at PKR(G332S) and on PKR(wt) was 75 to 250% in each case.

Regarding `O=C([C@H]1CCCO1)N1CC2=C(C1)CN(S(=O)(=O)c1ccccn1)C2` [Example 18-60, 2-({5-[(2R)-oxolane-2-carbonyl]-1H,2H,3H,4H,5H,6H-pyrrolo[3,4-c]pyrrol-2-yl}sulfonyl)pyridine], the activation at 1.54 µM at PKR(R510Q), on PKR(G332S) and on PKR(wt) was 75 to 250% each time. Moreover, the AC50 at PKR(R510Q), at PKR(G332S) and at PKR(wt) was 1 to 40 µM each time. Also, the Emax on PKR(R510Q) fell in the range of 250 to 500%; at PKR(G332S) it was 75 to 250%; on PKR(wt), 250 to 500%.

In the case of `Cc1ccc(CC(=O)N2CC3=C(C2)CN(S(=O)(=O)c2ccccn2)C3)cn1` [Example 18-61, 2-(6-Methylpyridin-3-yl)-1-[5-(pyridine-2-sulfonyl)-1H,2H,3H,4H,5H,6H-pyrrolo[3,4-c]pyrrol-2-yl]ethan-1-one], the activation at 1.54 µM on PKR(R510Q), on PKR(G332S) and on PKR(wt) was 75 to 250% in each case. Moreover, the AC50 on PKR(R510Q), at PKR(G332S) and at PKR(wt) was 1 to 40 µM in each case. Also, the Emax at PKR(R510Q) fell in the range of 250 to 500%; at PKR(G332S), 75 to 250%; at PKR(wt), 250 to 500%.

For `O=C([C@H](O)c1ccc(F)cc1)N1CC2=C(C1)CN(S(=O)(=O)c1cccnc1)C2` [Example 18-62, (2R)-2-(4-fluorophenyl)-2-hydroxy-1-[5-(pyridine-3-sulfonyl]-1H,2H,3H,4H,5H,6H-pyrrolo[3,4-c]pyrrol-2-yl]ethan-1-one], on PKR(R510Q), the activation at 1.54 µM lay in the range of 75 to 250%, the AC50 fell in the range of 1 to 40 µM and the Emax lay in the range of 250 to 500%. Further, on PKR(G332S), the activation at 1.54 µM fell in the range of 75 to 250%, the AC50 lay in the range of 1 to 40 µM and the Emax is 75 to 250%. On PKR(wt), the activation at 1.54 µM was in the range of 75 to 250%, the AC50 was 0.1 to 1 µM and the Emax was in the range of 75 to 250%.
